Toxic doses and inconclusive results are not listed. How the source made its calls: active means survival T/C of 150% or more; inactive means T/C below 125% in these data.
Test system: CD2F1 mice, L1210 leukemia ip, survival T/C
Experiment: NCI In Vivo Anticancer Drug Screen. Data for tumor model L1210 Leukemia (intraperitoneal) in CD2F1 (CDF1) mice
Conditions: higher = longer survival
Summary of the method: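 Each value reflects a quotient of treated over vehicle control outcomes in mice with a transplanted tumor.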

[1] = endpoint: mean survival time, dose: 100.0 mg/kg/injection, schedule: Q04DX003 (ip), vehicle: saline with Tween-80
[2] = endpoint: mean survival time, dose: 200.0 mg/kg/injection, schedule: Q04DX003 (ip), vehicle: saline with Tween-80
[3] = endpoint: mean survival time, dose: 400.0 mg/kg/injection, schedule: Q04DX003 (ip), vehicle: saline with Tween-80

Measured: T/C

O=[N+]([O-])c1ccc(Sc2ccc(Cl)cc2)cc1
inactive: endpoint: mean survival time, dose: 100.0 mg/kg/injection, schedule: Q01DX001 (ip), vehicle: other 95 % of control | endpoint: mean survival time, dose: 100.0 mg/kg/injection, schedule: Q01DX009 (ip), vehicle: saline with Tween-80 98 % of control | [1] 104 % of control | endpoint: mean survival time, dose: 200.0 mg/kg/injection, schedule: Q01DX001 (ip), vehicle: other 102 % of control | endpoint: mean survival time, dose: 200.0 mg/kg/injection, schedule: Q01DX009 (ip), vehicle: saline with Tween-80 98 % of control | [2] 95 % of control | endpoint: mean survival time, dose: 400.0 mg/kg/injection, schedule: Q01DX001 (ip), vehicle: other 107 % of control | [3] 103 % of control

COc1ccc(CCNC(=O)c2ccc(OC)c(OC)c2)cc1OC
inactive: endpoint: mean survival time, dose: 12.5 mg/kg/injection, schedule: Q01DX009 (ip), vehicle: other 104 % of control | endpoint: mean survival time, dose: 25.0 mg/kg/injection, schedule: Q01DX009 (ip), vehicle: other 90 % of control | endpoint: mean survival time, dose: 50.0 mg/kg/injection, schedule: Q01DX009 (ip), vehicle: other 103 % of control | endpoint: mean survival time, dose: 100.0 mg/kg/injection, schedule: Q01DX009 (ip), vehicle: other 98 % of control | endpoint: mean survival time, dose: 200.0 mg/kg/injection, schedule: Q01DX009 (ip), vehicle: other 97 % of control

CCc1ccc(C(=O)N/N=C(\C)[C@]2(O)Cc3c(O)c4c(c(O)c3[C@@H](OC3CC(N)C(O)C(C)O3)C2)C(=O)c2c(OC)cccc2C4=O)cc1 (stereo partly specified)
inactive: endpoint: mean survival time, dose: 0.25 mg/kg/injection, schedule: Q01DX009 (ip), vehicle: water 100 % of control | endpoint: mean survival time, dose: 0.5 mg/kg/injection, schedule: Q01DX009 (ip), vehicle: water 110 % of control | endpoint: mean survival time, dose: 1.0 mg/kg/injection, schedule: Q01DX009 (ip), vehicle: water 112 % of control | endpoint: mean survival time, dose: 8.0 mg/kg/injection, schedule: Q01DX009 (ip), vehicle: water 91 % of control

N#CC(/C=C/c1ccccc1)NCC(O)c1ccccc1 (stereo unspecified)
inactive: endpoint: mean survival time, dose: 100.0 mg/kg/injection, schedule: Q01DX001 (ip), vehicle: saline with Tween-80 97 % of control | endpoint: mean survival time, dose: 200.0 mg/kg/injection, schedule: Q01DX001 (ip), vehicle: saline with Tween-80 101 % of control | endpoint: mean survival time, dose: 400.0 mg/kg/injection, schedule: Q01DX001 (ip), vehicle: saline with Tween-80 93 % of control

CC1=CCCC(C)C2CC(C(C)(C)O)CC12 (stereo unspecified)
inactive: endpoint: mean survival time, dose: 100.0 mg/kg/injection, schedule: Q01DX001 (ip), vehicle: saline 93 % of control | endpoint: mean survival time, dose: 200.0 mg/kg/injection, schedule: Q01DX001 (ip), vehicle: saline 91 % of control | endpoint: mean survival time, dose: 400.0 mg/kg/injection, schedule: Q01DX001 (ip), vehicle: saline 95 % of control

[CH3][Sn]([CH3])([Cl])[S]CCN
inactive: endpoint: median survival time, dose: 3.12 mg/kg/injection, schedule: Q01DX009 (ip), vehicle: saline 107 % of control | endpoint: median survival time, dose: 6.25 mg/kg/injection, schedule: Q01DX009 (ip), vehicle: saline 101 % of control | endpoint: median survival time, dose: 12.5 mg/kg/injection, schedule: Q01DX009 (ip), vehicle: saline 109 % of control | endpoint: median survival time, dose: 25.0 mg/kg/injection, schedule: Q01DX009 (ip), vehicle: saline 111 % of control | endpoint: median survival time, dose: 50.0 mg/kg/injection, schedule: Q01DX009 (ip), vehicle: saline 114 % of control

O=S(=O)(F)c1ccc2nc(-c3ccccc3)cc(Cl)c2c1
inactive: endpoint: mean survival time, dose: 100.0 mg/kg/injection, schedule: Q01DX009 (ip), vehicle: saline 111 % of control | endpoint: mean survival time, dose: 200.0 mg/kg/injection, schedule: Q01DX009 (ip), vehicle: saline 108 % of control | endpoint: mean survival time, dose: 400.0 mg/kg/injection, schedule: Q01DX009 (ip), vehicle: saline 109 % of control

CN(C)c1ccc2nc3ccc(=O)cc-3sc2c1
inactive: endpoint: mean survival time, dose: 100.0 mg/kg/injection, schedule: Q01DX009 (ip), vehicle: Klucel (hydroxypropylcellulose) (HPC) 98 % of control | endpoint: mean survival time, dose: 200.0 mg/kg/injection, schedule: Q01DX009 (ip), vehicle: Klucel (hydroxypropylcellulose) (HPC) 101 % of control | endpoint: mean survival time, dose: 400.0 mg/kg/injection, schedule: Q01DX009 (ip), vehicle: Klucel (hydroxypropylcellulose) (HPC) 103 % of control

C=C(CN(C)C)c1ccccn1
inactive: endpoint: mean survival time, dose: 75.0 mg/kg/injection, schedule: Q01DX001 (ip), vehicle: other 100 % of control

CC(C)NC(=O)CCn1c(=O)c2ccccc2c(=O)n1C
inactive: endpoint: mean survival time, dose: 25.0 mg/kg/injection, schedule: Q04DX003 (ip), vehicle: saline 98 % of control | endpoint: mean survival time, dose: 50.0 mg/kg/injection, schedule: Q04DX003 (ip), vehicle: saline 98 % of control | endpoint: mean survival time, dose: 100.0 mg/kg/injection, schedule: Q04DX003 (ip), vehicle: saline 96 % of control | endpoint: mean survival time, dose: 200.0 mg/kg/injection, schedule: Q04DX003 (ip), vehicle: saline 106 % of control | endpoint: mean survival time, dose: 400.0 mg/kg/injection, schedule: Q04DX003 (ip), vehicle: saline 101 % of control

CC1CCN(N=Nc2ccccc2-c2nc(N)c3ccccc3n2)CC1
inactive: endpoint: mean survival time, dose: 100.0 mg/kg/injection, schedule: Q04DX002 (ip), vehicle: Klucel (hydroxypropylcellulose) (HPC) 98 % of control | endpoint: mean survival time, dose: 200.0 mg/kg/injection, schedule: Q04DX002 (ip), vehicle: Klucel (hydroxypropylcellulose) (HPC) 109 % of control | endpoint: mean survival time, dose: 400.0 mg/kg/injection, schedule: Q04DX002 (ip), vehicle: Klucel (hydroxypropylcellulose) (HPC) 95 % of control

S=C(Nc1ccc(Cl)c(Cl)c1)SCc1ccc2c(c1)OCO2
inactive: endpoint: mean survival time, dose: 18.7 mg/kg/injection, schedule: Q01DX009 (ip), vehicle: suspension in saline 107 % of control | endpoint: mean survival time, dose: 37.5 mg/kg/injection, schedule: Q01DX009 (ip), vehicle: suspension in saline 108 % of control | endpoint: mean survival time, dose: 75.0 mg/kg/injection, schedule: Q01DX009 (ip), vehicle: suspension in saline 107 % of control | endpoint: mean survival time, dose: 150.0 mg/kg/injection, schedule: Q01DX009 (ip), vehicle: suspension in saline 111 % of control

CCC(C)(C)c1ccc(O)cc1
inactive: [1] 104 % of control | [2] 98 % of control

COc1cc(C(=O)C=C(C(F)(F)F)C(F)(F)F)cc(OC)c1OC
inactive: [1] 101 % of control | [2] 98 % of control

O=C(O)C(O)(Cl)c1cccs1 (stereo unspecified)
inactive: [1] 98 % of control | [2] 95 % of control | [3] 95 % of control

COc1ccc(CCNC2CCCCC2O)cc1OC (stereo unspecified)
inactive: endpoint: mean survival time, dose: 75.0 mg/kg/injection, schedule: Q01DX001 (ip), vehicle: saline 106 % of control | endpoint: mean survival time, dose: 150.0 mg/kg/injection, schedule: Q01DX001 (ip), vehicle: saline 98 % of control | endpoint: mean survival time, dose: 300.0 mg/kg/injection, schedule: Q01DX001 (ip), vehicle: saline 104 % of control

O=[N+]([O-])O.[NH-]C1CCCCC1[NH-].[NH-]C1CCCCC1[NH-].[NH-]C1CCCCC1[NH-].[OH-].[OH-].[OH-].[Pt+4].[Pt+4].[Pt+4] (stereo unspecified)
inactive: endpoint: mean survival time, dose: 20.0 mg/kg/injection, schedule: Q04DX003 (ip), vehicle: water 87 % of control

CN(C)c1nc2c(c(=O)n(C)c(=O)n2C)n1C
inactive: endpoint: mean survival time, dose: 12.5 mg/kg/injection, schedule: Q01DX005 (ip), vehicle: distilled water + Tween-80 94 % of control | endpoint: mean survival time, dose: 25.0 mg/kg/injection, schedule: Q01DX005 (ip), vehicle: distilled water + Tween-80 93 % of control | endpoint: mean survival time, dose: 50.0 mg/kg/injection, schedule: Q01DX005 (ip), vehicle: distilled water + Tween-80 93 % of control | endpoint: mean survival time, dose: 100.0 mg/kg/injection, schedule: Q01DX005 (ip), vehicle: distilled water + Tween-80 88 % of control

C=CCC12CCCCC1=CC(=O)CC2 (stereo unspecified)
inactive: [1] 97 % of control | [2] 100 % of control | [3] 102 % of control

Clc1ccc(/C=N/N=C/c2ccc(Cl)cc2Cl)c(Cl)c1
inactive: endpoint: mean survival time, dose: 100.0 mg/kg/injection, schedule: Q01DX001 (ip), vehicle: Klucel (hydroxypropylcellulose) (HPC) 95 % of control | endpoint: mean survival time, dose: 200.0 mg/kg/injection, schedule: Q01DX001 (ip), vehicle: Klucel (hydroxypropylcellulose) (HPC) 89 % of control | endpoint: mean survival time, dose: 400.0 mg/kg/injection, schedule: Q01DX001 (ip), vehicle: Klucel (hydroxypropylcellulose) (HPC) 103 % of control

O=C(O)CCCc1cc(O)c2c(c1O)C(=O)c1ccccc1C2=O
inactive: endpoint: mean survival time, dose: 50.0 mg/kg/injection, schedule: Q04DX003 (ip), vehicle: saline with Tween-80 120 % of control | [1] 104 % of control | [2] 101 % of control

C1CC2OC2CCC2OC12 (stereo unspecified)
inactive: endpoint: mean survival time, dose: 100.0 mg/kg/injection, schedule: Q01DX009 (ip), vehicle: saline sonified 103 % of control | [1] 100 % of control | endpoint: mean survival time, dose: 200.0 mg/kg/injection, schedule: Q01DX009 (ip), vehicle: saline sonified 104 % of control | [2] 97 % of control | endpoint: mean survival time, dose: 400.0 mg/kg/injection, schedule: Q01DX009 (ip), vehicle: saline sonified 104 % of control | [3] 103 % of control

N/C(=N/O)c1cn(C2OC(CO)C(O)C2O)c2nc[nH]c(=O)c12 (stereo unspecified)
inactive: endpoint: mean survival time, dose: 75.0 mg/kg/injection, schedule: Q01DX001 (ip), vehicle: water 119 % of control

Nc1nc2c(ncn2CCCCc2ccccc2)c(=O)[nH]1
inactive: endpoint: mean survival time, dose: 100.0 mg/kg/injection, schedule: Q04DX002 (ip), vehicle: saline with Tween-80 94 % of control | endpoint: mean survival time, dose: 200.0 mg/kg/injection, schedule: Q04DX002 (ip), vehicle: saline with Tween-80 94 % of control | endpoint: mean survival time, dose: 400.0 mg/kg/injection, schedule: Q04DX002 (ip), vehicle: saline with Tween-80 94 % of control

Reference: PubChem BioAssay AID256 (DTP/NCI, 2004)
